≈ marks a conversion by molar mass, not a printed value. Like-named read-outs stand apart in the source and are kept apart here.
Legend:
[1] = molecular target: CHK-1 kinase (Homo sapiens (Human), UniProt O14757); assay: CHK-1 % inhibition kinase assay (TR-FRET); type: biochemical; conditions: ATP 15 μM; for inhibition at 0.03 µM / inhibition at 0.3 µM: CHK1 enzyme; for inhibition at 0.03 µM: compound 30 nM; for inhibition at 0.3 µM: compound 300 nM; for IC50: TR-FRET, read-out: CHK1 IC50
Method: Inhibition of CHK-1 kinase or percent inhibition at defined concentrations was determined by TR-FRET assay. Kinase reactions were performed in a 20 μL volume in low-volume 384-well plates (Cat #Corning 4511). The concentration of substrate Fluorescein-CREBtide was maintained at 0.2 μM in the assay, and the kinase reaction buffer consisted of 50 mM HEPES pH 7.5, 0.01% BRIJ-35, 10 mM MgCl2, 1 mM EGTA. Serially diluted compounds (3-fold) in DMSO (0.5% in final reaction) were incubated with cocktail of CHK-1 kinase (6 nM; Cat #PR3959B, ThermoFisher), Fluorescein-CREBtide (0.2 μM; Cat #PV3508, ThermoFisher), ATP (15 μM; Cat #A1852, Sigma), and kinase reaction buffer. After 1 hour kinase reactions at room temperature, 10 μL of Detection mix (8 nM LanthaScreen® Tb-CREB [pSer133] antibody, Cat #PV3542, ThermoFisher with 20 mM EDTA in TR-FRET Buffer, Cat #PV3574, ThermoFisher) was added, and the plate was read with a plate reader (Synergy™ NEO; Biotek) for TR-FRET.
The resulting TR-FRET emission ratio was used to calculate the percent inhibition by normalizing to the control using the following formula: […]

[2] = Microsomal stability assay, human liver microsome; type: in vitro ADME; conditions: liver microsomes, pH 7.4, 0.2 mg/mL, 1 μM compound, 37° C., read-out: Clint HLM
Method: (§1) Incubation mixture contained 0.2 mg/mL microsomes, 1 mmol NADPH, and test compound at 1 μM in 100 mmol potassium phosphate buffer at pH 7.4. The mixtures were incubated at 37° C. for 5, 15, and 30 minutes. Aliquots of the mixtures were taken at 0, 5, 15 and 30 minutes and quenched with chilled Acetonitrile:Methanol (50:50) containing internal standard. Following completion of incubation, samples were centrifuged at 4,000 rpm at 4° C. The supernatant was analyzed by LC-MS/MS and half-life, as well as intrinsic clearance (Clint), were calculated.

[3] = Microsomal stability assay, mouse liver microsome; type: in vitro ADME; conditions: liver microsomes, pH 7.4, 0.2 mg/mL, 1 μM compound, 37° C., read-out: Clint MLM
Method: as §1

[4] = Microsomal stability assay, rat liver microsome; type: in vitro ADME; conditions: liver microsomes, pH 7.4, 0.2 mg/mL, 1 μM compound, 37° C., read-out: Clint RLM
Method: as §1

[5] = physchem; conditions: 37 °C, pH 7.4, aqueous buffer, kinetic from dmso stock
Method: (§2) Test articles were serially diluted in DMSO from concentration range of 10 mM to 0.078 mM in 96 well v-bottom dilution plate (#3363, Corning). 1 μL of test article from each well was transferred to 96 well flat bottom clear plates (#655101, Greiner) containing 99 μL of PBS at pH-7.4, which makes the test drug final concentration range from 100 μM to 0.78 μM. Samples were incubated for 1 hour at 37° C. followed by measurement of light scattering at 625 nm with a laser based micro plate Nephelometer (Nephlostar Plus, BMG Labtech). Solubility concentration (μM) was then calculated by segmental regression with Neplometer as Readout.

[6] = Caco-2 cell permeability assay; type: in vitro ADME; conditions: human
Method: After thawed, Caco-2 cells were cultured in the medium containing 10% FBS, 1% Sodium pyruvate, 1% NEAA and 1% Glutamax MEM, then were placed in the incubator containing 5% CO2 at 37° C., and the culture medium then was replaced every 2-3 days. When the confluence reached 80%, the subculture was carried out. Add 5 mL of 1 M HEPES to 500 mL of HBSS for preparing transport buffer (pH 7.4), and the final concentration of HEPES was 10 mM. Before the transport study (day 21-28), take out the culture medium from the cell culture plate, wash it twice with preheated HBSS buffer (10 mM HEPES, pH 7.4), and add 100 μL HBSS buffer to each well. After incubation at 37° C. for 30 minutes, Teer value was measured by cell resistance meter (Millicell-ERS2) to confirm the integrity of monolayer cells. Discard the HBSS buffer, transfer the upper plate containing the cell monolayer membrane to the corresponding receiving plate, add the test compound solution or buffer to the top (side A) and the bottom (side B) respectively, put the cell plate into the corresponding 96 well receiving plate, and add the prepared positive control compound, test compound or HBSS buffer (with 0.5% BSA) on side A or side B of the filter membrane of Transwell cell plate according to the following groups, incubate cell plates at 37° C. When incubated for 5 minutes, 8 μL sample solutions were taken from the side A and the side B respectively and add 72 μL transport buffer (diluted 10 times) as TO of the initial solution. After 120 minutes of incubation, collect the samples at both ends of the filter membrane of Transwell cell plate; take 80 μL sample solution from the receiving side as the sample on the receiving side after transport, meanwhile take 8 μL sample solution from the administration side and then mix with 72 μL transport buffer, the well-mixed solution was used as the sample on the administration side after transport. After collecting bilateral samples, tap gently, discard the remaining solution in the cell plate, wash the cell plate with transport buffer; and to each well, add 100 μL acetonitrile solution containing internal standard working solution to lyse cells; After mixing well by blowing up and down, take 80 μL per well cell lysate as the sample after cell lysis. After collecting all samples in the transport system (TO sample from receiving side and administration side), 160 μL IS/ACN solution was added to each well, 80 μL IS/ACN solution was added to the collected lysate sample, and then seal it. Shake for 10 minutes and store the sample plate at −20° C. before LC-MS/MS analysis.
The following equation are used to calculate the apparent permeability coefficient (Papp, cm/s), the efflux ratio (ER), the solution recovery (% Recovery) and the total recovery (% Total Recovery).
Where, • Vreceiver is the volume of solution at the receiving end (0.25 mL for A to B and 0.1 mL for B to A); • Vdonor is the volume of the solution at the administration end (0.1 mL for A to B and 0.25 mL for B to A); • Vlysate is the volume of cell lysate (0.1 mL); • Area is the relative surface area of the cell monolayer (0.0804 cm^2); • Time is the incubation time (7200 s); • [drug]receiver is the drug concentration (nM) at the receiving end or the control compound; • [drug]donor is the concentration of drug or control compound at the administration end (nM); • [drug]lysate is the concentration of drug or control compound in cell lysate (nM); • [drug]initial is the initial concentration of the test or control compound (nM).

[7] = Kinetic solubility assay (nephelometry); conditions: PBS, 37 °C, pH 7.4, aqueous buffer, kinetic from dmso stock
Method: as §2

Chain of CHK-1 kinase (O14757 whole entry): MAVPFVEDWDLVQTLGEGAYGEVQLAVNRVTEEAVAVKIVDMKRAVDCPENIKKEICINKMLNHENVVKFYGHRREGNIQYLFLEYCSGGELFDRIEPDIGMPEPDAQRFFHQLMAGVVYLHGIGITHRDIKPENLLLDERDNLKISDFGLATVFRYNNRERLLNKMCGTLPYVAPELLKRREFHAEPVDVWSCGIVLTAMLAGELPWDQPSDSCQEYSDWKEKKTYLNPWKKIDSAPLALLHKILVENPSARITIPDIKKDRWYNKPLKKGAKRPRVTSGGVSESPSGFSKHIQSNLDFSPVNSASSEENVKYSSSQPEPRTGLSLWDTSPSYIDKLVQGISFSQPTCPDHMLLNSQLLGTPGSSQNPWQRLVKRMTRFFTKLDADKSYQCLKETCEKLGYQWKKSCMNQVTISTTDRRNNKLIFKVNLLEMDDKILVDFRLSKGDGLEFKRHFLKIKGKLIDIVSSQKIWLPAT

SMILES | inhibition at 0.03 µM [1] [%] | inhibition at 0.3 µM [1] [%] | microsomal CLint at 1 μM [2] [µL/min/mg] | microsomal CLint at 1 μM [3] [µL/min/mg] | microsomal CLint at 1 μM [4] [µL/min/mg] | solubility kinetic at 1 h [5] [µM] | IC50 [1] [nM] | recovery at 120 min ([6]; Caco-2, pH 7.4, Caco-2, solution recovery, A to B, read-out: Recovery % A to B) [%] | recovery at 120 min ([6]; Caco-2, pH 7.4, Caco-2, solution recovery, B to A, read-out: Recovery % B to A) [%] | recovery at 120 min ([6]; Caco-2, pH 7.4, Caco-2, total recovery with cell lysate, A to B, read-out: Recovery % with Cell Lysate A to B) [%] | recovery at 120 min ([6]; Caco-2, pH 7.4, Caco-2, total recovery with cell lysate, B to A, read-out: Recovery % with Cell Lysate B to A) [%] | Papp A→B at 120 min ([6]; Caco-2, A to B, 120 minutes, pH 7.4) [×10⁻⁶ cm/s] | Papp B→A at 120 min ([6]; Caco-2, B to A, 120 minutes, pH 7.4) [×10⁻⁶ cm/s] | solubility kinetic at 1 h [7] [µM]
COc1cc(C2=CCNCC2)ccc1-c1cc(Nc2cnc(C#N)cn2)no1 [Compound 1.19, 5-(5-(2-methoxy-4-(1,2,3,6-tetrahydropyridin-4-yl)phenyl)isoxazol-3-ylamino) pyrazine-2-carbonitrile] | 15.1 | 50.5 | 183 | 239 | 88 | 27.6 (≈ 10.3 µg/mL) | – | – | – | – | – | – | – | –
COc1cc(C2=CCNCC2)ccc1-c1cc(Nc2cnc(C#N)cn2)on1 [Compound 1.9, 5-(3-(2-methoxy-4-(1,2,3,6-tetrahydropyridin-4-yl)phenyl)isoxazol-5-ylamino) pyrazine-2-carbonitrile] | 33 | 31 | 159 | 83 | 85 | 100 (≈ 37.4 µg/mL) | > 10000 | – | – | – | – | – | – | –
N#Cc1cnc(Nc2cc(-c3ccccc3OCC3CCCNC3)on2)cn1 (stereo not drawn) [Compound 1.3, 5-(5-(2-(piperidin-3-ylmethoxy)phenyl)isoxazol-3-ylamino) pyrazine-2-carbonitrile] | 50 | 97 | 47 | 68 | 61 | – | 7.77 | 54.7 | 103 | 89 | 107 | 3.4 | 11.2 | 100 (≈ 37.6 µg/mL)
N#Cc1cnc(Nc2cc(-c3cc4ccccc4cc3OCC3CCCNC3)[nH]n2)cn1 (stereo not drawn) [Compound 2.5, 5-(5-(3-(piperidin-3-ylmethoxy)naphthalen-2-yl)-1H-pyrazol-3-ylamino) pyrazine-2-carbonitrile] | 72 | 96 | 14 | 111 | 124 | – | 4.36 | – | – | – | – | – | – | 41.6 (≈ 17.7 µg/mL)
COc1cc(C2=CCN(C)CC2)ccc1-c1cc(Nc2cnc(C#N)cn2)on1 [Compound 1.22, 5-(3-(2-methoxy-4-(1-methyl-1,2,3,6-tetrahydropyridin-4-yl)phenyl)isoxazol-5-ylamino) pyrazine-2-carbonitrile] | 13.7 | 11 | 169 | 313 | 142 | 28.4 (≈ 11 µg/mL) | – | – | – | – | – | – | – | –

From US20250346587A1, “NITROGEN-CONTAINING FIVE-MEMBERED HETEROCYCLIC DERIVATIVES AS CHECKPOINT KINASE 1 INHIBITOR AND USES THEREOF” (SPEROGENIX THERAPEUTICS LIMITED, priority 2022, published 2025)
